Measured values taken from US8097725B2, “Luminescent indicator dye and optical sensor” (Roche Diagnostics Operations, Inc., priority 2004, dated 2012).

Key:
[1] = immobilized in a hydrogel matrix; FIG. 3 in Werner et al.; cited from earlier work
[2] = pH titration of luminescence intensity of the optical sensor disc; format: physicochemical
Method: The indicator layer casting solution was coated onto a polyester foil (Melinex foil, ICI America) and the solvent was evaporated. The final dry thickness of the indicator layer was approximately 10 μm. Then, the overcoat layer casting solution was coated onto the indicator layer and the solvent was evaporated. The final a dry thickness of the overcoat layer was about 5 μm. Then, a small sensor disc (2.5 cm diameter) was punched out and soaked in buffer for at least 17 h for activation.
Aliquots of solutions A and B were mixed in appropriate rations to obtain eleven pH buffer solutions of pH 2.67, 3.66, 5.41, 6.35, 6.74, 7.28, 7.76, 8.29, 8.78, 9.81, 10.79, respectively. The pHs were determined at 37° C. with a standard glass electrode.
The sensor discs thus obtained were used in the measuring set-up represented schematically in FIG. 2. In FIG. 2, the reference character S denotes a portion of the sensor disc. […]
[formula] L denotes luminescence intensity and Lm denotes maximum luminescence intensity. […] (ON intensity=luminescence intensity of the protonated species (i.e., in FIG. 3 the intensity at pHs<5), OFF intensity=intensity of the deprotonated species (i.e., in FIG. 3 the intensity at pHs>10).

OFF intensity as percentage of ON intensity ([2]; ON = protonated species (pH<5), OFF = deprotonated species (pH>10))	pK value ([2]; immobilized on PVP beads dispersed in hydrophilic polymer layer, 37° C., buffers pH 2.67-10.79, least squares fit of intensity vs pH, excitation 480 nm, emission 520 nm cut-off)	SMILES	pK [1]
–	–	CC1=CC(C)=[N+]2C1=C(c1ccc(N(C)C)cc1)c1c(C)cc(C)n1[B-]2(F)F [1,3,5,7-tertramethyl-8-(4-dimethylamino)-4-difluorobora-3a,4a-diaza(s)-indacene]	3.3
5%	7.25	O=C(O)c1ccc(CN2C(=O)c3cccc4c(NCCc5cc(Cl)c(O)c(Cl)c5)ccc(c34)C2=O)cc1 [Dye A41]	–
